The text below walks through data of patent publication US12178804B2, “Salts of cycloserine compounds and applications thereof” (SyneuRx International (Taiwan) Corp., priority 2018, dated 2024).

A short description of data set [1]: Hygroscopicity test at room temperature/95% RH in an open system. It is filed as physicochemical.
The nature of data set [2]: Stress study at 40° C./75% RH in closed system (appearance, HPLC).

On to `O=C(O)[C@H](O)[C@@H](O)C(=O)O` [L-tartaric acid], for which, in data set [1] (FIG. 40), the “water absorbed at the 60th day” value stood at 244.6%.

On to `N[C@@H]1CONC1=O.O=C(O)/C=C\C(=O)O` [D-cycloserine maleate (1:1) salt form, D-cycloserine maleate], for which the “hygroscopicity compared with D-cycloserine and the carboxylic acids alone” value in data set [1] is recorded as “much less hygroscopic”. In data set [1] (FIG. 41), the “water absorbed at the 30th day” value is on record as 1.3%.

For the molecule `N[C@@H]1CONC1=O` [D-cycloserine from Strides Shasun Ltd., D-cycloserine], the “water absorbed at the 30th day” value in data set [1] (FIG. 41) was found to be 41.9%; in data set [1] (FIG. 42), 42.7%. For the same molecule, the “water absorbed at the 60th day” value in data set [1] (FIG. 40) is on record as 59.2%.

As for `N[C@@H]1CONC1=O.O=C(O)C(O)C(O)C(=O)O` [D-cycloserine L-tartrate], the “hygroscopicity compared with D-cycloserine and the carboxylic acids alone” value in data set [1] is on record as “much less hygroscopic”. For the same molecule, the “water absorbed at the 60th day” value in data set [1] (FIG. 40) turned out to be 18.9%. For the same molecule, the “hygroscopicity (in words)” value in data set [1] (30 days, FIG. 41) is “not hygroscopic”; in data set [1] (60 days, FIG. 40), “not hygroscopic”.

Take `O=C(O)/C=C\C(=O)O` [Maleic acid, maleic acid]: the “water absorbed at the 30th day” value in data set [1] (FIG. 41) worked out at 100.4%.

In the case of `N[C@@H]1CONC1=O` [D-cycloserine], the “water absorbed at the 30th day” value in data set [1] (FIG. 41) is 41.3%; in data set [1] (FIG. 42), 43.3%. Besides, the “water absorbed at the 60th day” value in data set [1] (FIG. 40) worked out at 62.5%. Besides, the “appearance after one month stress study” value in data set [2] (40° C./75% RH, one month) was “disintegrated and turned into dark yellow”.

With `N[C@@H]1CONC1=O.N[C@@H]1CONC1=O.O=C(O)C(O)C(O)C(=O)O` [D-cycloserine D-tartrate], the “hygroscopicity compared with D-cycloserine and the carboxylic acids alone” value in data set [1] is “much less hygroscopic”. For the same molecule, the “water absorbed at the 30th day” value in data set [1] (FIG. 42) is on record as 1.3%. Besides, in data set [1] (30 days, FIG. 42), the “hygroscopicity (in words)” value was “not hygroscopic”.

As for `O=C(O)[C@@H](O)[C@H](O)C(=O)O` [D-tartaric acid], the “water absorbed at the 30th day” value in data set [1] (FIG. 42) is listed as 177.0%. Moreover, in data set [2] (40/75% RH, 30 days, FIG. 39), the “stability by HPLC after stress study” value is reported as “stable”.
